Measured values: patent US20100292081A1, “Herbicidal Control Using Sulfentrazone and Dithiopyr” (FMC Corporation, priority 2009, published 2010)

Experiments:
Assay type in all cases: in vivo
[1] = system: broadleaf weeds (medic, buckhorn plantain, clover, red sorrel, dandelion); assay: Post-emergent herbicidal evaluation on turf plots (Example 2), broadleaf weeds in total; conditions: 45 DAT, NIS 0.25% V/V
Source text: (§1) The presence of a synergistic effect between the two active ingredients is established with the aid of the Colby equation (see Colby, S. R., “Calculating Synergistic and Antagonistic Responses of Herbicide Combinations”, Weeds 1967, 15, pg 20-22): E=X+Y−(XY/100).
(§2) Using the method of Colby, the presence of a synergistic interaction between two active ingredients is established by first calculating the expected activity, ‘E’, of the mixture based on activities of the two components applied alone. In the equation above, ‘X’ is the herbicidal activity in percentage control of sulfentrazone applied alone at rate ‘x’. The ‘Y’ term is the herbicidal activity of dithiopyr applied alone at rate ‘y’. The equation calculates ‘E’, the herbicidal activity of the mixture of ‘X’ at rate ‘x’ with ‘Y’ at rate ‘y’. If ‘E’ is lower than the observed activity, synergy is present. If the herbicidal effects are strictly additive, and no interaction has occurred, ‘E’ will be equal to or higher than the observed activity.
(§3) Control of large crabgrass (Digitaria sanguinalis), parsley piert (Alchenilla arvensis), common chickweed (Stellaria media) and shiny cudweed (Gnaphalium spicatum) was evaluated at 23 days after treatment (DAT) for each test rate. In order t to provide a measure of the effectiveness of a herbicide's performance weed control ratings were based on visual observations of the presence or absence of various weeds or of symptoms (necrosis, wilting, curling of leaves, discoloration etc.) on weeds compared to lack of symptoms. Ratings are based on the 0 to 100 rating system, where 0 equals no control and 100 equals complete control, which generally makes use of direct-percentage figures. In this system the standard basis for comparison is an untreated weedy check. Counts are made of each weed species found in the untreated area of the study. This provides a basis to give a precise representation of both weed infestation and degree of control provided by various chemical treatments. Counts are made on randomly selected areas which are generally 1 square foot to 1 square yard in size. Ratings are made for each weed species found in the untreated treatments. For example, a random area in an untreated plot has 10 yellow nutsedge plants per square foot equaling 0% control. A treated plot has only 1 yellow nutsedge plant found in the randomly selected area equaling 90% control.
Test compositions containing sulfentrazone (Dismiss™ Turf Herbicide), dithiopyr (DIMENSION® Ultra 40WP Specialty Herbicide) and mixtures thereof, were diluted with water to provide the appropriate test rate concentrations. A non-ionic surfactant (NIS) was added to each test solution, 0.25% V/V.
(§4) The size of each experimental turf plot was 4 feet by 4 feet, treating the inner 10 ft^2 per plot. The post-emergence application of each test composition was performed with a pressurized back-pack sprayer, calibrated to spray between 10 and 15 gallons per acre. Four replications were made for each test rate along an untreated control plot.
Control of broadleaf weeds was evaluated at 45 days after treatment (DAT) for each test rate. The broadleaf weeds included medic (Medicago sp.), buckhorn plantain (Plantago lanceolata), clover (Trifolium sp.), red sorrel (Rumex acetosella) and dandelion (Traxacum afficinale). Percent control of the broadleaf weeds was reported as a total number of broadleaf weeds controlled, not as individual species. The evaluation results were compared with results observed in untreated control plots in the same trials as described in Example 1 to determine % control and are summarized in Table 2 below. There was no damage to the turf grass at any rate tested. The Colby equation expected values are also in Table 2.

[2] = system: common chickweed (Stellaria media); assay: Pre-emergent herbicidal evaluation on turf plots (Example 1), common chickweed
Source text: as §1, §2
(§5) Test compositions containing sulfentrazone (Dismiss™ Turf Herbicide), dithiopyr (DIMENSION® Ultra 40WP Specialty Herbicide) and mixtures thereof, were diluted with water to provide the appropriate test rate concentrations.
as §4, with “The” for “The post-emergence”
(§6) Control of large crabgrass (Digitaria sanguinalis), parsley piert (Alchenilla arvensis), common chickweed (Stellaria media) and shiny cudweed (Gnaphalium spicatum) was evaluated at 23 days after treatment (DAT) for each test rate. In order t to provide a measure of the effectiveness of a herbicide's performance weed control ratings were based on visual observations of the presence or absence of various weeds or of symptoms (necrosis, wilting, curling of leaves, discoloration etc.) on weeds compared to lack of symptoms. […]

[3] = system: crabgrass (Digitaria sp.); assay: Pre-emergence control of crabgrass on turf plots (Example 3)
Source text: as §1, §2, §3, §5
as §4, with “The” for “The post-emergence”
(§7) Pre-emergence control of crabgrass (Digitaria sp.) was evaluated 180 days after treatment (DAT). Post-emergence control of curly dock (Rumex crispus) and shiny cudweed (Gnaphalium spicatum) parsley were evaluated at 65 days after treatment for each test rate. The evaluation results were compared with results observed in untreated control plots in the same trials as described in Example 1 to determine % control and are summarized in Table 3 below. There was no damage to the turf grass at any rate tested. The Colby equation expected values are also in Table 3.

[4] = system: shiny cudweed (Gnaphalium spicatum); assay: Pre-emergent herbicidal evaluation on turf plots (Example 1), shiny cudweed
Source text: as §1, §2, §5
as §4, with “The” for “The post-emergence”
as §6

[5] = system: shiny cudweed (Gnaphalium spicatum); assay: Post-emergence control of shiny cudweed on turf plots (Example 3)
Source text: as §1, §2, §3, §5
as §4, with “The” for “The post-emergence”
as §7

[6] = system: crabgrass (Digitaria sp.); assay: Early post-emergent control of crabgrass on turf plots (Example 4); conditions: 1 to 4 leaf stage, 45 DAT, X-77 0.25% V/V
Source text: as §1, §2, §3
Test compositions containing sulfentrazone (Dismiss™ Turf Herbicide), dithiopyr (DIMENSION® Ultra 40WP Specialty Herbicide) and mixtures thereof, were diluted with water to provide the appropriate test rate concentrations. A non-ionic surfactant (X-77) was added to each test solution, 0.25% V/V. […]
Control of crabgrass (Digitaria sp.) was evaluated at 45 days after treatment for each test rate. […]

[7] = system: curly dock (Rumex crispus); assay: Post-emergence control of curly dock on turf plots (Example 3)
Source text: as §1, §2, §3, §5
as §4, with “The” for “The post-emergence”
as §7

[8] = system: parsley piert (Alchenilla arvensis); assay: Pre-emergent herbicidal evaluation on turf plots (Example 1), parsley piert
Source text: as §1, §2, §5
as §4, with “The” for “The post-emergence”
as §6

[9] = system: large crabgrass (Digitaria sanguinalis); assay: Pre-emergent herbicidal evaluation on turf plots (Example 1), large crabgrass
Source text: as §1, §2, §5
as §4, with “The” for “The post-emergence”
In order t to provide a measure of the effectiveness of a herbicide's performance weed control ratings were based on visual observations of the presence or absence of various weeds or of symptoms (necrosis, wilting, curling of leaves, discoloration etc.) on weeds compared to lack of symptoms. Ratings are based on the 0 to 100 rating system, where 0 equals no control and 100 equals complete control, which generally makes use of direct-percentage figures. In this system the standard basis for comparison is an untreated weedy check. […]

SMILES: CSC(=O)c1c(C(F)F)nc(C(F)(F)F)c(C(=O)SC)c1CC(C)C [Dithiopyr, S,S′-dimethyl 2-(difluoromethyl)-4-(2-methylpropyl)-6-(trifluoromethyl)-3,5-pyridinedicarbothiolate]
- % Broadleaf Weed Cover ([1]; 0.125 lb/ac): 21%
- % Control of Broadleaf Weeds ([1]; 0.125 lb/ac): 0%
- % Broadleaf Weed Cover ([1]; 0.25 lb/ac): 8%
- % Control of Broadleaf Weeds ([1]; 0.25 lb/ac): 55%
- % Control of Weeds Common Chickweed 23 DAT ([2]; 0.5 lb/ac): 53%
- % Control of Weeds Crabgrass 180 DAT Pre-emergent application ([3]; 0.0125 lb/ac): 59%
- % Control of Weeds Crabgrass 180 DAT Pre-emergent application ([3]; 0.25 lb/ac): 23%
- % Control of Weeds Shiny Cudweed 23 DAT ([4]; 0.5 lb/ac): 29%
- % Control of Weeds Shiny Cudweed 65 DAT Post-emergent application ([5]; 0.0125 lb/ac): 53%
- % Control of Weeds Shiny Cudweed 65 DAT Post-emergent application ([5]; 0.25 lb/ac): 60%
- % Control of Crabgrass ([6]; 0.25 lb/ac): 50%
- % Control of Crabgrass ([6]; 0.5 lb/ac): 88%
- % Control of Weeds Curly Dock 65 DAT Post-emergent application ([7]; 0.0125 lb/ac): 36%
- % Control of Weeds Curly Dock 65 DAT Post-emergent application ([7]; 0.25 lb/ac): 60%
- % Control of Weeds Parsley Piert 23 DAT ([8]; 0.5 lb/ac): 38%
- % Control of Weeds Large Crabgrass 132 DAT ([9]; 0.5 lb/ac): 88%

SMILES: Cc1nn(-c2cc(NS(C)(=O)=O)c(Cl)cc2Cl)c(=O)n1C(F)F [Sulfentrazone, N-[2,4-dichloro-5-[4-difluoromethyl-4,5-dihydro-3-methyl-5-oxo-1H-1,2,4-triazol-1-yl]phenyl]methanesulfonamide]
- % Broadleaf Weed Cover ([1]; 0.125 lb/ac): 15%
- % Control of Broadleaf Weeds ([1]; 0.125 lb/ac): 16%
- % Broadleaf Weed Cover ([1]; 0.25 lb/ac): 10%
- % Control of Broadleaf Weeds ([1]; 0.25 lb/ac): 44%
- % Control of Weeds Common Chickweed 23 DAT ([2]; 0.25 lb/ac): 45%
- % Control of Weeds Common Chickweed 23 DAT ([2]; .0125 lb/ac): 23%
- % Control of Weeds Crabgrass 180 DAT Pre-emergent application ([3]; 0.0625 lb/ac): 0%
- % Control of Weeds Crabgrass 180 DAT Pre-emergent application ([3]; 0.125 lb/ac): 0%
- % Control of Weeds Crabgrass 180 DAT Pre-emergent application ([3]; 0.25 lb/ac): 0%
- % Control of Weeds Shiny Cudweed 23 DAT ([4]; 0.25 lb/ac): 43%
- % Control of Weeds Shiny Cudweed 23 DAT ([4]; .0125 lb/ac): 31%
- % Control of Weeds Shiny Cudweed 65 DAT Post-emergent application ([5]; 0.0625 lb/ac): 30%
- % Control of Weeds Shiny Cudweed 65 DAT Post-emergent application ([5]; 0.125 lb/ac): 50%
- % Control of Weeds Shiny Cudweed 65 DAT Post-emergent application ([5]; 0.25 lb/ac): 50%
- % Control of Crabgrass ([6]; 0.125 lb/ac): 30%
- % Control of Crabgrass ([6]; 0.25 lb/ac): 36%
- % Control of Weeds Curly Dock 65 DAT Post-emergent application ([7]; 0.0625 lb/ac): 0%
- % Control of Weeds Curly Dock 65 DAT Post-emergent application ([7]; 0.125 lb/ac): 16%
- % Control of Weeds Curly Dock 65 DAT Post-emergent application ([7]; 0.25 lb/ac): 20%
- % Control of Weeds Parsley Piert 23 DAT ([8]; 0.25 lb/ac): 47%
- % Control of Weeds Parsley Piert 23 DAT ([8]; .0125 lb/ac): 40%
- % Control of Weeds Large Crabgrass 132 DAT ([9]; 0.25 lb/ac): 23%
- % Control of Weeds Large Crabgrass 132 DAT ([9]; .0125 lb/ac): 7%
